Read-outs that look alike come from different tables or passages of the source. *1 amine or outer side, *2 acyl side, *3 side chain or, on linkers, in order; H or OH if unused. Where a SMILES comes first, the peptide text is derived from it. Bridges are numbered along the chain shown (N, C = ends). [ ]: non-standard residue; d: D form. NMePhe(4-CH2NHiPr) = CN[C@@H](Cc1ccc(CNC(C)C)cc1)C(=O)O; Phe(4-CH2NHiPr) = CC(C)NCc1ccc(C[C@H](N)C(=O)O)cc1; Tyr(3-I) = N[C@@H](Cc1ccc(O)c(I)c1)C(=O)O; X1 = NC(=O)N[C@@H](CS[*:2])C(=O)[*:1]; d2Nal = N[C@H](Cc1ccc2ccccc2c1)C(=O)O Bounds are passed on as bounds.

Experimental findings from US7019109B2, “SSTR1-selective analogs” (The Salk Institute for Bilogical Studies, priority 2001, dated 2006) are described below.

Type in all cases: binding
One assay deals with T1, human SSTR1 (Homo sapiens, UniProt P30872).
T1 construct: expressed in transfected cells; host or cells: CHO-K1 cells and CCL39 cells
T1 sequence (P30872 whole entry): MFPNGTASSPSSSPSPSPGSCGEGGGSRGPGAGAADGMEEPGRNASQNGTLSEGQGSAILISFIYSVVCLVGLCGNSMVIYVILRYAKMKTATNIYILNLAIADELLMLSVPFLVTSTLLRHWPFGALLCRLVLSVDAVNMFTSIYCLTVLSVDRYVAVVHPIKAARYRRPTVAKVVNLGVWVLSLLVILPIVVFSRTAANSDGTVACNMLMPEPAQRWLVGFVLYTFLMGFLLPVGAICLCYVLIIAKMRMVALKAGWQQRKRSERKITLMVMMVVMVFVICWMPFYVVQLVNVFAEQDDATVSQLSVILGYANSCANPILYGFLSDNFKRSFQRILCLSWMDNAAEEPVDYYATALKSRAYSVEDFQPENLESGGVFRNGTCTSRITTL
Put plainly: Displacement of 125I-[Leu8,D-Trp22,Tyr25]-SRIF-28 from cloned SSTR1 (receptor autoradiography). Conditions: for binding strength and selectivity for SSTR1, in words: Peptide No. 27 and 2A after iodination. The procedure: (§1) Generally, recombinant cells expressing the receptor are washed and homogenized to prepare a crude protein homogenate that is frozen, embedded and then cut in 10–20 μm thin sections, as known in this art. Candidate substances, such as potential SRIF agonists and antagonists, are incubated with the tissue sections, and the interaction between the candidate substance and the receptor polypeptide is monitored.
(§2) Receptor binding assays are performed on cloned SRIF receptors as generally set forth in Reubi, J. C. et al., J. Clin. Endocrinol. […] Med. 2000, 27, 273–282.
(§3) In vitro Bioassay: The various somatostatin analogs are tested in vitro for their ability to bind to isolated cloned receptors expressed on CHO-K1 cells and CCL39 cells. CHO-K1 cells are grown in Ham's F-12 medium, and CCL39 cells are grown in Dulbecco's modified Eagle's medium/Ham's F-12(1:1) mix, supplemented with 10% fetal bovine serum, 100 U/ml penicillin and 100 μg/ml streptomycin, in humidified air containing 5% CO2 at 37° C.
(§4) Cells are washed and prepared to produce homogenates as described in detail in Reubi, J. C. et al, Eur. J. Nucl. Med. 2000, 27, 273–282.
(§5) Receptor autoradiography is performed on 20 μm thick cryostat sections of the membrane pellets, mounted on microscope slides, and then stored at −20° C. […] Increasing concentrations of the unlabeled peptide are used ranging from 0.1–1000 nM. […] IC50 values are calculated after quantification of the data using a computer-assisted image processing system as known in this art.

Another assay has as its target T2, human SSTR2 (Homo sapiens, UniProt P30874).
T2 construct: expressed in transfected cells; host or cells: CHO-K1 cells and CCL39 cells
Briefly: Displacement of 125I-[Leu8,D-Trp22,Tyr25]-SRIF-28 from cloned SSTR2 (receptor autoradiography). The procedure: as §1, §2, §3, §4
(§6) Receptor autoradiography is performed on 20 μm thick cryostat sections of the membrane pellets, mounted on microscope slides, and then stored at −20° C. […] […] […] IC50 values are calculated after quantification of the data using a computer-assisted image processing system as known in this art.
In general terms: Displacement assays read how much labelled ligand stays bound in the presence of the test substance.

The target of another assay is T3, human SSTR3 (Homo sapiens, UniProt P32745).
T3 construct: expressed in transfected cells; host or cells: CHO-K1 cells and CCL39 cells
T3 sequence (P32745 whole entry): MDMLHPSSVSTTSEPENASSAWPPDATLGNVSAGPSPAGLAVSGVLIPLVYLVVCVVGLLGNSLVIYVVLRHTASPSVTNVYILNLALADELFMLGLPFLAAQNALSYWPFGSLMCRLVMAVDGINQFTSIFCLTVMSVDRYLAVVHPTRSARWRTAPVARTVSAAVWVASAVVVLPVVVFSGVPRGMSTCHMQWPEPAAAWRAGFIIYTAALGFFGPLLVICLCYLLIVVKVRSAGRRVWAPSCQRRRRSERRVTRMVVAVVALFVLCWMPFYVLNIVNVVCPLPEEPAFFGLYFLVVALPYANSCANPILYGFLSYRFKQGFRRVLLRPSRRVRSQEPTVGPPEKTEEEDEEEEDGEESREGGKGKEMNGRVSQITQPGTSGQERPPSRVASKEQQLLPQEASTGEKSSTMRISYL
Put plainly: Displacement of 125I-[Leu8,D-Trp22,Tyr25]-SRIF-28 from cloned SSTR3 (receptor autoradiography). Conditions: for effect on binding of the SRIF-28 radioligand to human SSTR3: at concentrations of 100 nM. The protocol:
as §1, §2, §3, §4, §5

For the next assay, the target named is T4, human SSTR4 (Homo sapiens, UniProt P31391).
T4 construct: expressed in transfected cells; host or cells: CHO-K1 cells and CCL39 cells
T4 sequence (P31391 whole entry): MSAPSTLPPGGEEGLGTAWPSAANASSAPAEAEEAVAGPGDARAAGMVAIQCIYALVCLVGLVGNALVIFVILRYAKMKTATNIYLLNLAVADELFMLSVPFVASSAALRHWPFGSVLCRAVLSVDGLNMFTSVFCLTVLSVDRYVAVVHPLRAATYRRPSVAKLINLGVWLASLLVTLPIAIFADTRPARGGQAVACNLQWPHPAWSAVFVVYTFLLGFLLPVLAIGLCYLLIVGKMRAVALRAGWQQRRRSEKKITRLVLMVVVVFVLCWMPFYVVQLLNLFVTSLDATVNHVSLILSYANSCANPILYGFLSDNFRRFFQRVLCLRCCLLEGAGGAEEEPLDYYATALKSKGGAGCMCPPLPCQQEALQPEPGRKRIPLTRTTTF
Briefly: Displacement of 125I-[Leu8,D-Trp22,Tyr25]-SRIF-28 from cloned SSTR4 (receptor autoradiography). The protocol:
as §1, §2, §3, §4, §5

A further assay has as its target T5, human SSTR5 (Homo sapiens, UniProt P35346).
T5 construct: expressed in transfected cells; host or cells: CHO-K1 cells and CCL39 cells
Briefly: Displacement of 125I-[Leu8,D-Trp22,Tyr25]-SRIF-28 from cloned SSTR5 (receptor autoradiography). The protocol: as §1, §2, §3, §4, §6

[1] abbreviates: inhibition of radioligand binding of 125I-[Leu8,D-Trp22,Tyr24]SRIF-28, cloned receptor, table, read-out: IC50 (nM) mSSTR4.
The mark [2] stands for this setting: displacement of iodinated SRIF-28 radioligand, read-out: IC50 / binding affinity at human SSTR1.
Where [3] appears, read: inhibition of radioligand binding of 125I-[Leu8,D-Trp22,Tyr24]SRIF-28, cloned receptor, table, read-out: IC50 (nM) mSSTR1.
Setting [4] is: inhibition of radioligand binding of 125I-[Leu8,D-Trp22,Tyr24]SRIF-28, cloned receptor, table, read-out: IC50 (nM) mSSTR2.
The mark [5] stands for this setting: read-out: concentration below which no binding to SSTR2.
[6] abbreviates: inhibition of radioligand binding of 125I-[Leu8,D-Trp22,Tyr24]SRIF-28, cloned receptor, table, read-out: IC50 (nM) mSSTR5.
Where [7] appears, read: read-out: concentration below which no binding to SSTR5.

T2 sequence (P30874 whole entry): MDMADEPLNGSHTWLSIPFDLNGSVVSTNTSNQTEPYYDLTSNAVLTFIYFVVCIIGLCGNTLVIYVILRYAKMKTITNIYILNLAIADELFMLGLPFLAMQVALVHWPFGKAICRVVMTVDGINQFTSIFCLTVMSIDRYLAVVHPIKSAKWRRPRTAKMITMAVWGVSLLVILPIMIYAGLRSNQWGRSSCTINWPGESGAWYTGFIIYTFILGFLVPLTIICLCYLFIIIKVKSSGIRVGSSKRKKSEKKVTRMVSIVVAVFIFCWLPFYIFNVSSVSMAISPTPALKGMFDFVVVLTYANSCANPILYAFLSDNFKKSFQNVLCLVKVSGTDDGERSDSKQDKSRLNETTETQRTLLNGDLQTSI
T5 sequence (P35346 whole entry): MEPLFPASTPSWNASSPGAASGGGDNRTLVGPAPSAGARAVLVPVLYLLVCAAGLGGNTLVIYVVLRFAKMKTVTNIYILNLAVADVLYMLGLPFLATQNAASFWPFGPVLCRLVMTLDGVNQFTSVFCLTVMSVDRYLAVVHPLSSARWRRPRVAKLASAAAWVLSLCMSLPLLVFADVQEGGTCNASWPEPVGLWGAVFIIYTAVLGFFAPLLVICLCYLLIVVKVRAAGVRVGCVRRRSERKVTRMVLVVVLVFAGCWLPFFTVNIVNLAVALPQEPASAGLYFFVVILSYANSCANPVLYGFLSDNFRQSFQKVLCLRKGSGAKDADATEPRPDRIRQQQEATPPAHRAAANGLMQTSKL

For `CC(C)NCc1ccc(C[C@@H]2NC(=O)[C@@H](Cc3c[nH]c4ccccc34)NC(=O)[C@H](Cc3ccccc3)NC(=O)[C@H](Cc3ccccc3)NC(=O)[C@H](CCCCN)NC(=O)[C@@H](N)CSSC[C@@H](C(=O)O)NC(=O)[C@H](CO)NC(=O)[C@H]([C@@H](C)O)NC(=O)[C@H](Cc3ccc(O)cc3)NC(=O)[C@H]([C@@H](C)O)NC2=O)cc1` [2A, (cyclo)H-Cys-Lys-Phe-Phe-D-Trp-IAmp-Thr-Tyr-Thr-Ser-Cys-OH] (H-CKFF[dW][Phe(4-CH2NHiPr)]TYTSC-OH; disulfide 1-11), the “binding strength and selectivity for SSTR1, in words” value at human SSTR1 is “continues to bind strongly”. The IC50 on human SSTR2 (read-out: IC50 (nM) mSSTR2) and at human SSTR4 (setting [1]) was greater than 10000 nM each time. For the same compound, the “effect on binding of the SRIF-28 radioligand to human SSTR3” value at human SSTR3 is recorded as “even less effect”.

`CC(C)NCc1ccc(C[C@H]2C(=O)N[C@@H]([C@@H](C)O)C(=O)N[C@@H](Cc3ccc(O)cc3)C(=O)N[C@@H]([C@@H](C)O)C(=O)N[C@@H](CO)C(=O)N[C@H](C(=O)O)CSSC[C@H](N)C(=O)N[C@@H](CCCCN)C(=O)N[C@@H](Cc3ccccc3)C(=O)N[C@@H](Cc3ccccc3)C(=O)N[C@H](Cc3c[nH]c4ccccc34)C(=O)N2C)cc1` [Peptide No. 2, (cyclo)H-Cys-Lys-Phe-Phe-D-Trp-N^αMeIAmp-Thr-Tyr-Thr-Ser-Cys-OH] (H-CKFF[dW][NMePhe(4-CH2NHiPr)]TYTSC-OH; disulfide 1-11): the IC50 at human SSTR1 (setting [2]) is roughly 6.1 nM; at human SSTR1 (setting [3]), 7.2 nM; on human SSTR2 (setting [4]), greater than 10000 nM; at human SSTR2 (setting [5]), greater than 10000 nM; on human SSTR3 (read-out: IC50 (nM) mSSTR3) it was greater than 1000 nM; at human SSTR4 (read-out: IC50 (nM) mSSTR4), greater than 1000 nM. The IC50 at human SSTR5 (setting [6]) and on human SSTR5 (setting [7]) was greater than 10000 nM in each case. Besides, the “effect on binding of the SRIF-28 radioligand to human SSTR2” value on human SSTR2 (at concentrations of 100 nM) was “minimal effects”. In addition, on human SSTR3 (Peptide No. 27 iodinated), the “binding to SSTR3, in words” value was “does not bind strongly”. Also, the “effect on binding of the SRIF-28 radioligand to human SSTR3” value at human SSTR3 was “minimal effects”. Further, the “binding to SSTR4, in words” value at human SSTR4 (Peptide No. 27 iodinated) is given as “does not bind strongly”. The “effect on binding of the SRIF-28 radioligand to human SSTR4” value at human SSTR4 (at concentrations of 100 nM) is recorded as “minimal effects”. The “effect on binding of the SRIF-28 radioligand to human SSTR5” value at human SSTR5 (at concentrations of 100 nM) is recorded as “minimal effects”.

For the compound `CC(C)NCc1ccc(C[C@@H]2NC(=O)[C@@H](Cc3c[nH]c4ccccc34)NC(=O)[C@H](Cc3ccccc3)NC(=O)[C@H](Cc3ccccc3)NC(=O)[C@H](CCCCN)NC(=O)[C@@H](N)CSSC[C@@H](C(=O)O)NC(=O)[C@H](CO)NC(=O)[C@H]([C@@H](C)O)NC(=O)[C@H](Cc3ccc(O)c(I)c3)NC(=O)[C@H]([C@@H](C)O)NC2=O)cc1` [Peptide No. 2B] (H-CKFF[dW][Phe(4-CH2NHiPr)]T[Tyr(3-I)]TSC-OH; disulfide 1-11), the IC50 at human SSTR2 (read-out: IC50 (nM) mSSTR2) was greater than 10000 nM.

For `CC(C)NCc1ccc(C[C@H]2C(=O)N[C@@H]([C@@H](C)O)C(=O)N[C@@H](Cc3ccc(O)cc3)C(=O)N[C@@H]([C@@H](C)O)C(=O)N[C@@H](CO)C(=O)N[C@H](C(=O)O)CSSC[C@H](N)C(=O)N[C@@H](CCCCN)C(=O)N[C@@H](Cc3ccccc3)C(=O)N[C@@H](Cc3ccccc3)C(=O)N[C@H](Cc3ccc4ccccc4c3)C(=O)N2C)cc1` [Peptide No. 9A, (cyclo)H-Cys-Lys-Phe-Phe-D-2Nal-N^αMeIAmp-Thr-Tyr-Thr-Ser-Cys-OH] (H-CKFF[d2Nal][NMePhe(4-CH2NHiPr)]TYTSC-OH; disulfide 1-11), the IC50 on human SSTR1 (setting [2]) is roughly 21 nM; on human SSTR1 (setting [3]), 24.5 nM; at human SSTR2 (setting [4]) it was greater than 10000 nM; at human SSTR2 (setting [5]), greater than 10000 nM; at human SSTR3 (inhibition of radioligand binding of 125I-[Leu8,D-Trp22,Tyr24]SRIF-28, cloned receptor, table, read-out: IC50 (nM) mSSTR3) it was greater than 1000 nM; on human SSTR3 (read-out: concentration below which no binding to SSTR3) it was greater than 1000 nM. In addition, the IC50 on human SSTR4 (setting [1]) was greater than 1000 nM; at human SSTR4 (read-out: concentration below which no binding to SSTR4), greater than 10000 nM; at human SSTR5 (setting [6]), greater than 10000 nM; at human SSTR5 (setting [7]) it was greater than 10000 nM.

As for `CC(C)NCc1ccc(C[C@H]2C(=O)N[C@@H]([C@@H](C)O)C(=O)N[C@@H](Cc3ccc(O)cc3)C(=O)N[C@@H]([C@@H](C)O)C(=O)N[C@@H](CO)C(=O)N[C@H](C(=O)O)CSSC[C@H](NC(N)=O)C(=O)N[C@@H](CCCCN)C(=O)N[C@@H](Cc3ccccc3)C(=O)N[C@@H](Cc3ccccc3)C(=O)N[C@H](Cc3c[nH]c4ccccc34)C(=O)N2C)cc1` [Peptide No. 12, (cyclo)CbmCys-Lys-Phe-Phe-D-Trp-N^αMeIAmp-Thr-Tyr-Thr-Ser-Cys-OH] (KFF[dW][NMePhe(4-CH2NHiPr)]TYTSC-OH; linker N-10 via X1), the “binding strength and selectivity for SSTR1, in words” value on human SSTR1 is “good selectivity with good binding strength”. For the same compound, the IC50 at human SSTR1 (setting [3]) is 43 nM; on human SSTR2 (read-out: IC50 (nM) mSSTR2), greater than 10000 nM; at human SSTR3 (read-out: IC50 (nM) mSSTR3), greater than 1000 nM; at human SSTR4 (read-out: IC50 (nM) mSSTR4), greater than 1000 nM; on human SSTR5 (read-out: IC50 (nM) mSSTR5) it was greater than 10000 nM.

Regarding `CC(C)NCc1ccc(C[C@@H]2NC(=O)[C@@H](Cc3c[nH]c4ccccc34)NC(=O)[C@H](Cc3ccccc3)NC(=O)[C@H](Cc3ccccc3)NC(=O)[C@H](CCCCN)NC(=O)[C@@H](NC(N)=O)CSSC[C@@H](C(=O)O)NC(=O)[C@H](CO)NC(=O)[C@H]([C@@H](C)O)NC(=O)[C@H](Cc3ccc(O)cc3)NC(=O)[C@H]([C@@H](C)O)NC2=O)cc1` [Peptide No. 12A, (cyclo)CbmCys-Lys-Phe-Phe-D-Trp-IAmp-Thr-Tyr-Thr-Ser-Cys-OH] (KFF[dW][Phe(4-CH2NHiPr)]TYTSC-OH; linker N-10 via X1), the IC50 on human SSTR1 (setting [2]) was 8.1 nM; at human SSTR2 (read-out: IC50 (nM) mSSTR2) it was greater than 10000 nM; at human SSTR3 (read-out: IC50 (nM) mSSTR3) it was greater than 1000 nM; on human SSTR4 (read-out: IC50 (nM) mSSTR4), greater than 1000 nM; at human SSTR5 (read-out: IC50 (nM) mSSTR5) it was greater than 1000 nM.
